Data on eight compounds can be found in ChEMBL document CHEMBL1201862, “PubChem BioAssay data set” (2004).

One may read the GI50 as the concentration that inhibits growth by half.

Experiment in all cases: DTP human tumour cell line panel, 48 h
Experiment [1] relates to Hs-578T.
Experiment [2] concerns RXF 393.
In experiment [3] the test system is NCI/ADR-RES.
For experiment [4], the system named is SNB-19.
The test system of experiment [5] is EKVX.
Experiment [6] deals with PC-3.
Experiment [7] has as its system T47D.
Experiment [8] has as its system SK-OV-3.
In experiment [9] the test system is HCT-15.
For experiment [10], the system named is SN12C.
Experiment [11] relates to UO-31.
Experiment [12] deals with UACC-257.
Experiment [13] relates to NCI-H226.
Experiment [14] deals with HCC 2998.
Experiment [15] has as its system HOP-62.
Experiment [16] relates to DU-145.
Experiment [17] has as its system HL-60.
For experiment [18], the system named is HT-29.
Experiment [19] relates to MOLT-4.
The subject of experiment [20] is NCI-H522.

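Interpolation was linear, between the two tested concentrations surrounding the appropriate level; five concentrations were tested over 48 hours in 96-well plates. GI50: concentration for 50% inhibition of growth.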 Activity calls are given as the source filed them. No stated cut-off is given here; in the data, active = GI50 up to about 1.1 µM and inactive = higher.

For the compound `COc1cccc([C@@H]2CC(=O)c3cc4c(cc3N2)OCO4)c1`, the GI50 in experiment [1] is 64.9 µM (inactive); in [2] it was > 100 µM (inactive); in experiment [3] it was > 100 µM (inactive); in experiment [4] it was > 100 µM (inactive); in experiment [5], > 100 µM (inactive); in [6], > 100 µM (inactive). In addition, the GI50 in experiment [7] was > 100 µM (inactive); in experiment [8], > 100 µM (inactive); in experiment [9] it was over 100 µM; in experiment [10] it was > 100 µM (inactive); in experiment [11] it was > 100 µM (inactive); in experiment [12], > 100 µM (inactive). In addition, the GI50 in experiment [13], in experiment [14], in experiment [15] and in experiment [16] was > 100 µM (inactive) in each case.

In the case of `COC(=O)C1(Cc2ccc3c(c2)CCC3)Cc2ccccc2C1=O` (stereo not drawn), the GI50 was 13.4 µM (inactive) in experiment [1]; 7.06 µM (inactive) in experiment [3]; 20.7 µM (inactive) in [4]; 3.12 µM (inactive) in experiment [17]; 17.3 µM (inactive) in [5]; 7.69 µM (inactive) in [6]. Besides, the GI50 in [7] is 19.3 µM (inactive); in experiment [8] it was 15.7 µM (inactive); in experiment [9] it was 6.76 µM; in experiment [10], 27.6 µM (inactive); in [18], 5.46 µM (inactive); in experiment [11], 17.1 µM (inactive). The GI50 in experiment [12] was 18.5 µM (inactive); in [13], 18.2 µM (inactive); in experiment [19], 4.45 µM (inactive); in [14] it was 14.6 µM (inactive); in experiment [20], 7.66 µM (inactive); in experiment [15] it was 14.2 µM (inactive). Further, in [16], the GI50 is 16.6 µM (inactive).

As for `C=C1[C@@H]2CCC3[C@]4(C)C(CC[C@@]5(C)C(=O)O[C@H](O)[C@@H]45)[C@H](O)[C@]3(C2)[C@H]1OC1OC(CO)C(O)C(O)C1O` (stereo partly drawn), the GI50 in experiment [1], in experiment [2], in [3], in [4], in experiment [17] and in experiment [5] was > 50 µM (inactive) each time. The GI50 in experiment [6] is > 50 µM (inactive); in experiment [7], > 50 µM (inactive); in experiment [8], > 50 µM (inactive); in experiment [9] it was over 50 µM; in experiment [10] it was > 50 µM (inactive); in [18], > 50 µM (inactive). In addition, the GI50 in experiment [11] was > 50 µM (inactive); in experiment [12], > 50 µM (inactive); in [13], > 50 µM (inactive); in [19], 17.4 µM (inactive); in experiment [15], > 50 µM (inactive); in experiment [16], > 50 µM (inactive).

Consider `CCOC(=O)c1cc2c3c(c(C(C)=O)c(O)c2[nH]1)N(C(C)=O)CC3`, for which the GI50 was 51.9 µM (inactive) in [1]; 21.7 µM (inactive) in [2]; 29.9 µM (inactive) in experiment [3]; > 100 µM (inactive) in [4]; 76.2 µM (inactive) in experiment [17]; 61 µM (inactive) in [5]. Further, the GI50 was 48.3 µM (inactive) in experiment [6]; 46.7 µM (inactive) in [7]; > 100 µM (inactive) in experiment [8]; 49.7 µM in experiment [9]; > 100 µM (inactive) in experiment [10]; > 100 µM (inactive) in experiment [18]. For the same compound, the GI50 in experiment [11] is 31.2 µM (inactive); in experiment [12], > 100 µM (inactive); in experiment [13] it was 71.4 µM (inactive); in [19], 27.7 µM (inactive); in experiment [15], > 100 µM (inactive); in experiment [16], 82.6 µM (inactive).

In the case of `NCCS(=O)(=O)O` [TAURINE], the GI50 in experiment [1], in [3], in experiment [4], in experiment [17], in [5] and in experiment [6] was > 100 µM (inactive) throughout. The GI50 is > 100 µM (inactive) in experiment [7]; over 100 µM in experiment [9]; > 100 µM (inactive) in experiment [10]; > 100 µM (inactive) in experiment [18]; > 100 µM (inactive) in [11]; > 100 µM (inactive) in experiment [12]. In addition, the GI50 in experiment [13], in [19], in experiment [14], in experiment [20], in [15] and in [16] was > 100 µM (inactive) throughout.

Take `Cc1ccc(C(=O)NCc2ccccc2)cc1/N=N/N(C)C`: the GI50 in experiment [1] was > 100 µM (inactive); in [3], 86.3 µM (inactive); in experiment [4], > 100 µM (inactive); in [17], 37.2 µM (inactive); in [5] it was > 100 µM (inactive); in experiment [6], 71.3 µM (inactive). Also, the GI50 was 39.7 µM (inactive) in experiment [7]; > 100 µM (inactive) in experiment [8]; over 83 µM in experiment [9]; > 100 µM (inactive) in experiment [10]; > 58.7 µM (inactive) in [18]; > 31.5 µM (inactive) in experiment [11]. Moreover, the GI50 in experiment [12] is 21.4 µM (inactive); in experiment [13], > 100 µM (inactive); in experiment [19] it was 56.8 µM (inactive); in experiment [14] it was > 100 µM (inactive); in [20] it was 27.7 µM (inactive); in experiment [15], > 100 µM (inactive). Moreover, the GI50 in experiment [16] is > 100 µM (inactive).

Take `CSc1nncc2[nH]cnc12`: the GI50 in experiment [1], in experiment [2], in experiment [3], in [4], in [17] and in [5] was > 100 µM (inactive) in each case. Besides, the GI50 in experiment [6] is > 100 µM (inactive); in experiment [7], > 100 µM (inactive); in [9], over 100 µM; in experiment [10], > 100 µM (inactive); in experiment [18] it was > 100 µM (inactive); in [11], > 100 µM (inactive). Besides, the GI50 in [12], in experiment [13], in experiment [19], in experiment [15] and in [16] was > 100 µM (inactive) in each case.

With `Cc1oc2c(c1C)S(=O)(=O)C(C#N)=C(c1ccccc1)N2`, the GI50 in experiment [1], in experiment [3], in experiment [4], in [5], in experiment [6] and in experiment [7] was > 100 µM (inactive) in each case. In addition, the GI50 in experiment [8] was > 100 µM (inactive); in experiment [9] it was over 100 µM; in experiment [10] it was > 100 µM (inactive); in [18], > 100 µM (inactive); in experiment [11], > 100 µM (inactive); in [12] it was > 100 µM (inactive). Further, the GI50 in experiment [13], in experiment [19], in experiment [14], in [20], in [15] and in experiment [16] was > 100 µM (inactive) throughout.
